{"source": "patent US10994016B2", "about": "“Graphene oxide mediated cellular delivery of gadolinium-labeled molecules” (Northwestern University, priority 2015, dated 2021)", "note": "Several values for one entry are separate records, joined by “and”; a condition that tells them apart may be missing. Equal values may be shown once."}
{"system": "not listed separately", "assay": "Octanol-water partition coefficients", "type": "physicochemical", "details": "errors show SEM; Gd in each layer by ICP-MS", "description": "Approximately 1 mg of each compound was dissolved in 1 mL of a 1:1 mixture of water/1-octanol. After shaking the sample tube vigorously for 30 s, the tube was placed on a rotator for gentle mixing over 6 h. The tube was then removed from the rotator and allowed to sit for 12 h to ensure complete separation of the aqueous and organic phases. […] Once separation was complete, 10 μL was removed from each layer to determine the concentration of Gd by ICP-MS. The partition coefficient was calculated from the following equation: log10P=log10(Co/Cw), where log10 P is the logarithm of the partition coefficient, Co is the concentration of Gd in the 1-octanol layer, and Cw is the concentration of Gd in the water layer."}
{"molecule": "O=C([O-])CN1CCN(CC(=O)[O-])CCN(CC(O)Cn2cc(CCCc3ccccc3)nn2)CCN(CC(=O)[O-])CC1.[Gd+3]", "note": "(centres unmarked) [Molecule 6]", "Water-Octanol LogP": "−1.26 ± 0.08"}
{"molecule": "O=C([O-])CN1CCNCCN(CC(=O)[O-])CCN(CC(=O)[O-])CC1.[Gd+3]", "note": "[Molecule 7]", "Water-Octanol LogP": "−3.71 ± 0.02"}
{"molecule": "NCCCN1CCN(CC(=O)[O-])CCN(CC(=O)[O-])CCN(CC(=O)[O-])CC1.[Gd+3]", "note": "[Molecule 8]", "Water-Octanol LogP": "−3.86 ± 0.01"}
{"molecule": "NCCCCCCN1CCN(CC(=O)[O-])CCN(CC(=O)[O-])CCN(CC(=O)[O-])CC1.[Gd+3]", "note": "[Molecule 9]", "Water-Octanol LogP": "−3.98 ± 0.07"}
{"molecule": "NCCCCCCCCCCCCN1CCN(CC(=O)[O-])CCN(CC(=O)[O-])CCN(CC(=O)[O-])CC1.[Gd+3]", "note": "[Molecule 10]", "Water-Octanol LogP": "−1.63 ± 0.04"}
{"system": "HeLa cells", "assay": "Cellular delivery studies with and without GO co-incubation, HeLa", "type": "cell-based", "details": "1500 nm GO; 188 μM Gd(III), 18.8 μg/mL GO", "description": "(§1) ICP-MS Samples were prepared in 15-mL conical tubes by adding ACS reagent grade nitric acid (70%), followed by incubation at 70° C. overnight to allow for complete sample digestion. The effectiveness of this digestion protocol was previously validated for GO. After incubation, a multi-element internal standard (containing Bi, Ho, In, Li, Sc, Tb, and Y, Inorganic Ventures, Christiansburg, Va.) and milli-Q water (18.2 MΩ·cm) were added to produce a final sample of 3% (v/v) nitric acid and 5 ng/mL internal standard.\n(§2) ICP-MS was performed on a computer-controlled (Plasmalab software) Thermo X series II ICP-MS (Thermo Fisher Scientific, Waltham, Mass., USA) operating in standard mode equipped with an ESI SC-2 autosampler (Omaha, Nebr., USA). Each sample was acquired using 1 survey run (10 sweeps) and 3 main (peak jumping) runs (100 sweeps). The isotopes selected for analysis were Gd with In and Ho isotopes selected as internal standards for data interpolation. Instrument performance is optimized daily through an autotune followed by verification via a performance report (passing manufacturer specifications). Instrument calibration was accomplished by preparing individual-element Gd standards (Inorganic Ventures, Christiansburg, Va., USA) using concentrations of 0.78125, 1.5625, 3.125, 6.25, 12.50, 25.00, 50.00, 100.0, and 200.0 ng/mL containing 3.0% nitric acid (v/v) and 5.0 ng/mL of multi-element internal standard.\n(§3) Dulbecco's modified phosphate buffered saline (DPBS), media, and dissociation reagents were purchased from Life Technologies (Carlsbad, Calif.). CorningBrand® cell culture consumables (flasks, plates, etc.) and sera were purchased from VWR Scientific (Radnor, Pa.). HeLa cells (ATCC® CCL-2™) and KB cells (ATCC® CCL-17™) were purchased from the American Type Culture Collection (ATCC, Manassas, Va.) and cultured in phenol red-free minimum essential media (MEM) supplemented with 10% fetal bovine serum (FBS). Prior to all experiments, cells were plated and allowed to incubate for 24 hours before dosing. Cells were harvested with 0.25% TrypLE for 5 minutes at 37° C. in a 5.0% CO2 incubator. For sterilization, all Gd(III)-labeled molecules were filtered with 0.2 μm sterile filters prior to concentration determination and storage at 4° C. GO was used as prepared without further sterilization. […] Cells were grown in a humidified incubator operating at 37° C. and 5.0% CO2.\n(§4) Cell counting was conducted using a Guava EasyCyte Mini Personal Cell Analyzer (EMD Millipore, Billerica, Mass.). After cell harvesting, an aliquot (50 μL) of the cell suspensions was mixed with Guava ViaCount reagent (150 μL) and allowed to stain at room temperature for at least 5 minutes. The dilution factor of 4 was determined based upon optimum machine performance (20-150 cells/μL). After vortexing for 10 sec, stained cells were counted using a Guava EasyCyte Mini Personal Cell Analyzer (PCA) using the ViaCount software module. For each sample, 1000 events were acquired. Gating of live/dead and cell/debris classifications were performed manually by the operator.\n(§5) Cellular delivery studies were performed with HeLa and KB cells. HeLa and KB were plated at a cell density of approximately 25,000 and 50,000 cells per well, respectively, in a 24-well plate as counted by a hemocytometer. Stock solutions of 1-14 (1 mM), 150 nm GO (100 μg/mL), and 1500 nm GO (100 μg/mL) were prepared using sterile Milli-Q water. Prior to dosing, 80 μL ([…]) of each GO (150 nm and 1500 nm) and 80 μL (80 nmol) of each Gd(III)-labeled molecule (1-14) were mixed and allowed to adsorb for at least 15 minutes. 150 μL Gd(III)-GO solutions were added to 250 μL media to give a final concentration of 188 μM Gd and 18.8 μg/mL GO. Cells were incubated with the mixture of Gd(III)-labeled molecules and GO for […]. To harvest, cells were rinsed in-plate three times with 500 μL PBS and trypsinized using 100 μL 0.25% TrypLE. […]"}
{"molecule": "NCCCCCCN1CCN(CC(=O)[O-])CCN(CC(=O)[O-])CCN(CC(=O)[O-])CC1.[Gd+3]", "note": "[Molecule 9]", "Delivery enhancement without adsorption time": "same result"}
{"system": "HeLa cells", "assay": "Cellular delivery studies with and without GO co-incubation, HeLa", "type": "cell-based", "details": "+150 nm GO co-incubation; 188 μM Gd(III), 18.8 μg/mL GO, 24 h; replicate values", "description": "as §1, §2, §3, §4, §5"}
{"molecule": "O=C([O-])CN1CCN(CC(=O)[O-])CCN(CC(O)Cn2cc(CCCc3ccccc3)nn2)CCN(CC(=O)[O-])CC1.[Gd+3]", "note": "(centres unmarked) [Molecule 6]", "Gd content (fmol/cell)": "1.13 fmol/cell and 0.53 fmol/cell and 0.68 fmol/cell and 0.73 fmol/cell (2×) and 0.47 fmol/cell and 0.87 fmol/cell"}
{"molecule": "O=C([O-])CN1CCNCCN(CC(=O)[O-])CCN(CC(=O)[O-])CC1.[Gd+3]", "note": "[Molecule 7]", "Gd content (fmol/cell)": "0.53 fmol/cell and 0.39 fmol/cell (2×) and 0.42 fmol/cell and 0.44 fmol/cell (2×) and 1.09 fmol/cell and 0.73 fmol/cell"}
{"molecule": "NCCCN1CCN(CC(=O)[O-])CCN(CC(=O)[O-])CCN(CC(=O)[O-])CC1.[Gd+3]", "note": "[Molecule 8]", "Gd content (fmol/cell)": "13.40 fmol/cell and 20.22 fmol/cell and 14.84 fmol/cell"}
{"molecule": "NCCCCCCN1CCN(CC(=O)[O-])CCN(CC(=O)[O-])CCN(CC(=O)[O-])CC1.[Gd+3]", "note": "[Molecule 9]", "Gd content (fmol/cell)": "28.63 fmol/cell and 32.09 fmol/cell and 29.78 fmol/cell"}
{"molecule": "NCCCCCCCCCCCCN1CCN(CC(=O)[O-])CCN(CC(=O)[O-])CCN(CC(=O)[O-])CC1.[Gd+3]", "note": "[Molecule 10]", "Gd content (fmol/cell)": "45.53 fmol/cell and 50.10 fmol/cell and 48.08 fmol/cell"}
{"system": "HeLa cells", "assay": "Cellular delivery studies with and without GO co-incubation, HeLa", "type": "cell-based", "details": "+150 nm GO; values removed as outliers (Chauvenet's criterion, * experimenter judgment)", "description": "as §1, §2, §3, §4, §5", "units": {"Gd content (fmol/cell), Outliers": "fmol/cell"}}
{"molecule": "O=C([O-])CN1CCN(CC(=O)[O-])CCN(CC(O)Cn2cc(CCCc3ccccc3)nn2)CCN(CC(=O)[O-])CC1.[Gd+3]", "note": "(centres unmarked) [Molecule 6]", "Gd content (fmol/cell), Outliers": 3.26}
{"system": "HeLa cells", "assay": "Cellular delivery studies with and without GO co-incubation, HeLa", "type": "cell-based", "details": "+1500 nm GO co-incubation; 188 μM Gd(III), 18.8 μg/mL GO, 24 h; replicate values", "description": "as §1, §2, §3, §4, §5"}
{"molecule": "O=C([O-])CN1CCN(CC(=O)[O-])CCN(CC(O)Cn2cc(CCCc3ccccc3)nn2)CCN(CC(=O)[O-])CC1.[Gd+3]", "note": "(centres unmarked) [Molecule 6]", "Gd content (fmol/cell)": "1.29 fmol/cell and 1.24 fmol/cell and 0.67 fmol/cell and 0.64 fmol/cell"}
{"molecule": "O=C([O-])CN1CCNCCN(CC(=O)[O-])CCN(CC(=O)[O-])CC1.[Gd+3]", "note": "[Molecule 7]", "Gd content (fmol/cell)": "0.63 fmol/cell and 0.55 fmol/cell and 0.68 fmol/cell and 0.50 fmol/cell and 1.05 fmol/cell and 1.36 fmol/cell"}
{"molecule": "NCCCN1CCN(CC(=O)[O-])CCN(CC(=O)[O-])CCN(CC(=O)[O-])CC1.[Gd+3]", "note": "[Molecule 8]", "Gd content (fmol/cell)": "7.61 fmol/cell and 7.56 fmol/cell and 6.31 fmol/cell"}
{"molecule": "NCCCCCCN1CCN(CC(=O)[O-])CCN(CC(=O)[O-])CCN(CC(=O)[O-])CC1.[Gd+3]", "note": "[Molecule 9]", "Gd content (fmol/cell)": "11.67 fmol/cell and 20.36 fmol/cell and 14.83 fmol/cell"}
{"molecule": "NCCCCCCCCCCCCN1CCN(CC(=O)[O-])CCN(CC(=O)[O-])CCN(CC(=O)[O-])CC1.[Gd+3]", "note": "[Molecule 10]", "Gd content (fmol/cell)": "14.47 fmol/cell and 26.93 fmol/cell and 18.26 fmol/cell"}
{"system": "HeLa cells", "assay": "Cellular delivery studies with and without GO co-incubation, HeLa", "type": "cell-based", "details": "+1500 nm GO; values removed as outliers (Chauvenet's criterion, * experimenter judgment)", "description": "as §1, §2, §3, §4, §5"}
{"molecule": "O=C([O-])CN1CCN(CC(=O)[O-])CCN(CC(O)Cn2cc(CCCc3ccccc3)nn2)CCN(CC(=O)[O-])CC1.[Gd+3]", "note": "(centres unmarked) [Molecule 6]", "Gd content (fmol/cell), Outliers": "4.12 fmol/cell"}
{"molecule": "O=C([O-])CN1CCNCCN(CC(=O)[O-])CCN(CC(=O)[O-])CC1.[Gd+3]", "note": "[Molecule 7]", "Gd content (fmol/cell), Outliers": "6.54 fmol/cell and 4.00 fmol/cell"}
{"system": "HeLa cells", "assay": "Cellular delivery studies with and without GO co-incubation, HeLa", "type": "cell-based", "details": "molecule alone, without GO; 188 μM Gd(III), 24 h, 24-well plate; replicate values", "description": "as §1, §2, §3, §4, §5"}
{"molecule": "O=C([O-])CN1CCN(CC(=O)[O-])CCN(CC(O)Cn2cc(CCCc3ccccc3)nn2)CCN(CC(=O)[O-])CC1.[Gd+3]", "note": "(centres unmarked) [Molecule 6]", "Gd content (fmol/cell)": "0.78 fmol/cell and 0.72 fmol/cell and 0.40 fmol/cell and 0.47 fmol/cell and 0.58 fmol/cell"}
{"molecule": "O=C([O-])CN1CCNCCN(CC(=O)[O-])CCN(CC(=O)[O-])CC1.[Gd+3]", "note": "[Molecule 7]", "Gd content (fmol/cell)": "0.47 fmol/cell and 0.39 fmol/cell and 0.51 fmol/cell and 0.46 fmol/cell and 0.75 fmol/cell and 0.83 fmol/cell"}
{"molecule": "NCCCN1CCN(CC(=O)[O-])CCN(CC(=O)[O-])CCN(CC(=O)[O-])CC1.[Gd+3]", "note": "[Molecule 8]", "Gd content (fmol/cell)": "0.68 fmol/cell and 1.78 fmol/cell and 1.87 fmol/cell and 1.16 fmol/cell and 0.94 fmol/cell and 1.30 fmol/cell and 1.48 fmol/cell"}
{"molecule": "NCCCCCCN1CCN(CC(=O)[O-])CCN(CC(=O)[O-])CCN(CC(=O)[O-])CC1.[Gd+3]", "note": "[Molecule 9]", "Gd content (fmol/cell)": "6.86 fmol/cell and 7.54 fmol/cell and 4.78 fmol/cell and 7.33 fmol/cell and 8.77 fmol/cell and 6.65 fmol/cell and 7.40 fmol/cell"}
{"molecule": "NCCCCCCCCCCCCN1CCN(CC(=O)[O-])CCN(CC(=O)[O-])CCN(CC(=O)[O-])CC1.[Gd+3]", "note": "[Molecule 10]", "Gd content (fmol/cell)": "3.88 fmol/cell and 5.08 fmol/cell and 4.54 fmol/cell"}
{"system": "HeLa cells", "assay": "Cellular delivery studies with and without GO co-incubation, HeLa", "type": "cell-based", "details": "molecule alone, without GO; values removed as outliers (Chauvenet's criterion, * experimenter judgment)", "description": "as §1, §2, §3, §4, §5"}
{"molecule": "O=C([O-])CN1CCNCCN(CC(=O)[O-])CCN(CC(=O)[O-])CC1.[Gd+3]", "note": "[Molecule 7]", "Gd content (fmol/cell), Outliers": "4.93* fmol/cell and 4.31* fmol/cell"}
{"molecule": "NCCCCCCN1CCN(CC(=O)[O-])CCN(CC(=O)[O-])CCN(CC(=O)[O-])CC1.[Gd+3]", "note": "[Molecule 9]", "Gd content (fmol/cell), Outliers": "13.02* fmol/cell and 14.46* fmol/cell and 18.05 fmol/cell and 24.04 fmol/cell"}
